pIC50: −log10 of the molar value.
Experiments:
PNT1B-MOCK cells = experiment: pETS-luc luciferase assay in PNT1B-MOCK cells (non-specific effect); assay type: cell-based, human; conditions: increasing concentrations, 48 h; compared to PNT1B-ERG cells
Description: All of the compounds selected from the virtual screening were tested in a luciferase-based ERG-responsive reporter assay, using two ERG-overexpressing cell lines, VCaP and PNT1B-ERG, previously developed in house. […] Data were normalized first to Renilla luciferase and then to the DMSO-media control on each plate, unless otherwise stated. Initial hit compounds were identified as those with an average normalized luciferase reading (firefly luciferase/Renilla luciferase readings) that is 60% or less of the average normalized luciferase reading of the DMSO-media control (i.e. 40% or more reduction of luciferase activity) at 10 μM. Representative example of raw Renilla luciferase readings presented in Supplementary Figure 9B. […]
Supplementary Figure 3: VPC-18005 selectively suppresses ERG-mediated transcriptional activity. […] Data are presented as the mean ± SEM of 4 technical replicates and expressed as luciferase:renilla ratio (activity).
(B) Luciferase assay was performed on VCaP cells transfected with ETS responsive luciferase reporter and treated with DMSO (0) or 0.1, 1, or 10 nM R1881 in the presence of 25 μM of VPC-18005. Data are presented as the mean ± SEM of 4 technical replicates and expressed as the luciferase:renilla ratio relative to VPC-18005 alone. […]

RWPE-ERG cells [1] = experiment: MTS cell viability assay, RWPE-ERG; assay type: cell-based; conditions: increasing concentrations (0.2 to 25 μM), 72 h
Description: Twenty four hours later, 100 μL of medium containing vehicle control or compounds. Each treatment was prepared in triplicate. After a 72 h treatment, cellular viability was assessed using CellTiter 96 ® Aqueous One Solution Cell Proliferation Assay reagent (Promega) according to the manufacturer's instructions. Values were normalized to the DMSO control. page 8: Supplementary Figure 4: VPC-18005 suppresses migration, but not growth of RWPE-1-ERG cells. (A) Cell viability (MTS) of ERG-expressing cells (RWPE-ERG) (closed circle) and non-ERG expressing cells (RWPE-MOCK (open square)) after treatment […] Impact on viability is presented as the mean ± SEM […] (B) RWPE-1-Mock or (C) […] The normalized cell index is a measure of the migration of the cells through the pores of the upper chamber and is used as the migration index. Dotted lines represent 1 standard deviation (SD) of the mean migration rate.

RWPE-ERG cells [2] = experiment: Real time cell migration (xCELLigence), RWPE-ERG; assay type: cell-based; conditions: 5 µM; compared to MOCK control
Description: Cell migration was monitored using CIM-16 migration plates via the xCELLigence platform (ACEA). FBS-supplemented media (160 μL) was added to the lower chamber of the plate and incubated at RT for 30 min. The upper chamber was then mounted and 30 μL of serum free media (SFM) was added to each well and left to equilibrate in the incubator for 1 h at 37°C. After the incubation, a background reading was taken for each well. […] Real time readings of cell index values were recorded initially every 5 min until the end of the experiment (48 hr). page 8: Supplementary Figure 4: VPC-18005 suppresses migration, but not growth of RWPE-1-ERG cells. (A) Cell viability (MTS) of ERG-expressing cells (RWPE-ERG) (closed circle) and non-ERG expressing cells (RWPE-MOCK (open square)) after treatment […] Impact on viability is presented as the mean ± SEM […] (B) RWPE-1-Mock or (C) […] The normalized cell index is a measure of the migration of the cells through the pores of the upper chamber and is used as the migration index. Dotted lines represent 1 standard deviation (SD) of the mean migration rate.

[3] = Murine pharmacodynamics and toxicology studies; assay type: in vivo, mice
Description: Supplementary Figure 10: (A) In a preliminary study to evaluate in vivo toxicity and establish working oral (PO) doses, Nu/nu mice (n = 4) received a single PO dose of VPC-18005 (100 mg/kg or 500 mg/kg) dissolved in cyclodextrin. Blood was collected directly after injection and at the times indicated. Serum concentration of VPC-18005 was determined for each time point. (B) In a 4 week “repeated dose” study, body weight was measured daily for mice (n = 4) that received a daily dose of VPC-18005 (150 mg/kg BID) dissolved 50% ethanol (PO) or 50% ethanol (Vehicle). Change in weight of each animal was normalized to starting pretreatment weight. (C) Cytotoxicity serum markers of vehicle and VPC-18005 treated animals described in B) were determined and presented as average (Avg. Conc.) and standard deviation (SD) with corresponding paired t-test p values. LC-MS analysis of serum indicators of major organ toxicity (albumin (ALB), alkaline phosphatase (ALP) and alanine aminotransferase (ALT) as indicators of liver dysfunction, amylase (AMY) to test for acute pancreatitis, total bilirubin (TBIL) to assess jaundice, and blood urea nitrogen (BUN) to assess kidney function from endpoint samples

PC3 cells = test system: PC3 cells; parameters: method as in PMID 21559405; conditions: read-out: IC50 for cytotoxicity in PC3 cells; cited from earlier work

| SMILES | Impact on the reporter signal in PNT1B-MOCK (PNT1B-MOCK cells) | Effect on cell viability (MTS), RWPE cells overexpressing ERG (RWPE-ERG cells [1]) | Effect on RWPE-ERG cell migration (RWPE-ERG cells [2]) | Solubility, stability and oral bioavailability in mice ([3]; Nu/nu mice, PO) | Serum indicators of major organ toxicity (ALB, ALP, ALT, AMY, TBIL, BUN) ([3]; mice, 150 mg/kg BID, 4 weeks, endpoint samples) | General toxicity, repeated dose ([3]; mice, 4 week BID at 150 mg/kg PO) | General toxicity, single dose ([3]; mice, single doses of up to 500 mg/kg PO) | pIC50 (PC3 cells) |
| --- | --- | --- | --- | --- | --- | --- | --- | --- |
| CC(C)c1ccc(C=N/N=C2\NC(=O)[C@@H](CC(=O)O)S2)cc1 (stereo in doubt) [VPC-18005, 2-((Z)-2-(((Z)-4-isopropylbenzylidene)hydrazono)-4-oxothiazolidin-5-yl)acetic acid] | minimal impact | No effect on cell viability | moderate effect | soluble, stable and orally bioavailable | no significant impact | does not exhibit general toxicity | does not exhibit general toxicity |  |
| COc1ccc(C(=O)CC2(O)C(=O)Nc3c(Cl)ccc(Cl)c32)cc1 (centres unmarked) [YK-4-279, reference compound] |  |  |  |  |  |  |  | < 4.00 |
